Test results as given in ChEMBL document CHEMBL1201862, “PubChem BioAssay data set” (2004).
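The compound was tested at five concentrations on cells cultured in 96-well plates, with a 48-hour exposure period. Here, GI50 denotes the concentration required for 50% inhibition of growth.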 Activity calls are given as the source filed them. Cut-off read from the data, not from the text of the source: active = GI50 up to about 1.1 µM and inactive = higher.

What was measured:
Assay in all cases: DTP human tumour cell line panel, 48 h
A549 = tested on: A549
CAKI-1 = tested on: CAKI-1
EKVX = tested on: EKVX
HCC 2998 = tested on: HCC 2998
HCT-116 = tested on: HCT-116
LXFL 529 = tested on: LXFL 529
M14 = tested on: M14
NCI-H460 = tested on: NCI-H460
OVCAR-4 = tested on: OVCAR-4
SF-295 = tested on: SF-295
SK-MEL-5 = tested on: SK-MEL-5
UO-31 = tested on: UO-31
BT-549 = tested on: BT-549
Hs-578T = tested on: Hs-578T
MDA-MB-231 = tested on: MDA-MB-231
MDA-MB-435 = tested on: MDA-MB-435
MDA-N = tested on: MDA-N
PC-3 = tested on: PC-3
SR = tested on: SR
T47D = tested on: T47D

SMILES | GI50 (A549) | GI50 (CAKI-1) | GI50 (EKVX) | GI50 (HCC 2998) | GI50 (HCT-116) | GI50 (LXFL 529) | GI50 (M14) | GI50 (NCI-H460) | GI50 (OVCAR-4) | GI50 (SF-295) | GI50 (SK-MEL-5) | GI50 (UO-31) | GI50 (BT-549) | GI50 (Hs-578T) | GI50 (MDA-MB-231) | GI50 (MDA-MB-435) | GI50 (MDA-N) | GI50 (PC-3) | GI50 (SR) | GI50 (T47D)
CC1=C(C(=O)Nc2cccc(C(F)(F)F)c2)C(c2ccc(O)cc2)C(C(=O)Nc2cccc(C(F)(F)F)c2)=C(C)N1 | 24.4 µM (inactive) | 11.6 µM (inactive) | 18.1 µM (inactive) | 17.3 µM (inactive) | 14.6 µM (inactive) | 18.6 µM (inactive) | 14.9 µM (inactive) | 16.7 µM (inactive) | 14.8 µM (inactive) | 20.5 µM (inactive) | 16.9 µM (inactive) | 12.7 µM (inactive) |  |  |  |  |  |  |  | 
O=C1NC(=O)C(C(=O)C(=O)Nc2cc(Cl)ccc2Cl)C(=O)N1 | > 100 µM (inactive) |  | > 100 µM (inactive) | > 100 µM (inactive) | > 100 µM (inactive) | > 100 µM (inactive) | > 100 µM (inactive) | > 100 µM (inactive) | > 100 µM (inactive) | > 100 µM (inactive) | > 100 µM (inactive) | > 100 µM (inactive) |  |  |  |  |  |  |  | 
COC(=O)C1=C(C)N(NC(=O)Nc2ccccc2)C2(N)N(NC(=O)Nc3ccccc3)C(C)=C(C(=O)OC)C12C(=O)OC (stereo not drawn) | > 100 µM (inactive) | 23.7 µM (inactive) |  | 39.4 µM (inactive) | > 100 µM (inactive) | 62.5 µM (inactive) | 47.5 µM (inactive) | 38.3 µM (inactive) | 64.9 µM (inactive) |  |  | > 100 µM (inactive) |  |  |  |  |  |  |  | 
O=C1c2ccccc2C(=O)N1CCN(CCN1C(=O)c2ccccc2C1=O)Cn1cccn1 | > 100 µM (inactive) | > 100 µM (inactive) | > 100 µM (inactive) | > 100 µM (inactive) | 17.8 µM (inactive) | > 100 µM (inactive) | > 100 µM (inactive) | 84.3 µM (inactive) | > 100 µM (inactive) | > 100 µM (inactive) | > 100 µM (inactive) | > 100 µM (inactive) |  |  |  |  |  |  |  | 
Oc1nc(CC(O)c2ccc(Cl)c(Cl)c2)cc(-c2ccccc2)n1 (stereo not drawn) | 27.1 µM (inactive) | 55.6 µM (inactive) | 44.9 µM (inactive) | 33.5 µM (inactive) | 49.8 µM (inactive) | > 100 µM (inactive) | 91 µM (inactive) | 94.8 µM (inactive) | 68.4 µM (inactive) | 53.7 µM (inactive) | 37.8 µM (inactive) | 26.2 µM (inactive) |  |  |  |  |  |  |  | 
CC(C)=CCC/C(C)=C/CC/C(C)=C/CC(CO)N(C)CC/C=C(\C)CCC=C(C)C (stereo not drawn) | 4.93 µM (inactive) | 6.64 µM (inactive) | 10.4 µM (inactive) | 3.04 µM (inactive) | 2.15 µM (inactive) |  | 1.79 µM (inactive) | 3.48 µM (inactive) | 8.97 µM (inactive) | 7.1 µM (inactive) | 8.39 µM (inactive) | 4.65 µM (inactive) | 14.1 µM (inactive) | 5.31 µM (inactive) | 9.86 µM (inactive) | 3.93 µM (inactive) | 3.43 µM (inactive) | 7.96 µM (inactive) | 2.17 µM (inactive) | 3.64 µM (inactive)
O=C1C(=O)c2c(oc(=O)c3ccccc23)-c2ccccc21 | > 25 µM (inactive) | > 25 µM (inactive) | > 25 µM (inactive) | 13.9 µM (inactive) | 11 µM (inactive) |  | > 25 µM (inactive) | > 25 µM (inactive) | 6.5 µM (inactive) | > 25 µM (inactive) | 12.6 µM (inactive) | > 25 µM (inactive) | 11.7 µM (inactive) | > 25 µM (inactive) | > 25 µM (inactive) | 6.75 µM (inactive) | 24.4 µM (inactive) | > 25 µM (inactive) | > 25 µM (inactive) | > 25 µM (inactive)
COC(=O)CCc1cc(O)c2c(c1)C(C(=O)OC)C(c1ccc(O)c(O)c1)O2 (stereo not drawn) | 43.4 µM (inactive) | 26.6 µM (inactive) | 34.4 µM (inactive) | 5.02 µM (inactive) | 7.19 µM (inactive) |  | 13.9 µM (inactive) | 22.9 µM (inactive) | > 58.7 µM (inactive) | 17.7 µM (inactive) | 4.06 µM (inactive) | 26.2 µM (inactive) | 12.5 µM (inactive) | 25.2 µM (inactive) | 11.7 µM (inactive) | 1.48 µM (inactive) | 1.9 µM (inactive) | 19.6 µM (inactive) | 3.45 µM (inactive) | 6.37 µM (inactive)
CCC1(CN(C)C)CC/C(=C\c2ccc3c(c2)OCO3)C1=O (stereo not drawn) | > 100 µM (inactive) | > 100 µM (inactive) | 52.1 µM (inactive) | > 100 µM (inactive) | > 100 µM (inactive) | > 100 µM (inactive) | > 100 µM (inactive) |  | > 100 µM (inactive) | > 100 µM (inactive) | 62.5 µM (inactive) | 91.8 µM (inactive) |  |  |  |  |  |  |  | 
CCC(C)C1NC(=O)C(NC(=O)C(CC(C)C)N(C)C(=O)[C@@H]2CC(O)CN2C(=O)[C@H](C)O)C(C)OC(=O)[C@H](Cc2ccc(OC)cc2)N(C)C(=O)[C@@H]2CCCN2C(=O)[C@H](CC(C)C)NC(=O)C(C)C(=O)[C@H](C(C)C)OC(=O)CC1O (stereo partly drawn) | 0.325 µM (active) | 1.14 µM (inactive) | 0.0201 µM (active) | 0.148 µM (active) | 0.0458 µM (active) |  | 0.0935 µM (active) | 0.117 µM (active) | 0.17 µM (active) | 0.225 µM (active) | 0.0359 µM (active) | 1.44 µM (inactive) | 0.189 µM (active) | 0.0266 µM (active) | 0.349 µM (active) | 0.152 µM (active) | 0.133 µM (active) | 0.252 µM (active) | 0.345 µM (active) | 0.0452 µM (active)
